Tests used:
[1] = Drug stabilization effect (photostabilizer, sunlight exposure); set-up: key to Sunlight exposure (80 MJ) Appearance: A: No change; B: No almost change; C: Yes change; settings: photostabilizer 0.05, amounts wt %
Experimental: Next, the photo stabilization effect and changes in appearance in drug compositions were studied according to the following evaluation formulation.
Each test sample was prepared. Appearance changes of the samples exposed to sunlight (80 MJ) was observed (visual evaluation). Also, residual yield was measured by liquid chromatography.

[2] = Perfume stabilization effect (photostabilizer, sunlight exposure, judgement by perfumier); set-up: key to Sunlight exposure (80 MJ) Smell evaluation / Sunlight exposure (80 MJ) evaluation: A: No change; B: No almost change; C: Yes change
Experimental: Next, the photostabilization effect for each perfume was studied by the following evaluation formulation.
Each test sample was prepared. Change of smell of sample exposed to sunlight (80 MJ) was observed (judgement by perfumier).

[3] = Colorant stabilization effect (photostabilizer, sunlight exposure); set-up: key to Sunlight exposure (80 MJ) Appearance: A: No change; B: No almost change; C: Yes change; key to Sunlight exposure (80 MJ) ΔE: ΔE color difference (Lab) vs. color before sunlight exposure; settings: photostabilizer 0.05 wt %
Experimental: First of all, the photostabilization effect and appearance change of a composition in each pigment were studied by the following evaluation formulation.
Each test sample was prepared. Observation of appearance change (visual evaluation) and measurement of color difference (ΔE) were carried out in samples exposed to sunlight exposure (around 80 MJ).
Color difference was measured by Lab coordinate system with spectrophotometer. Color difference was calculated on the basis of the color before sunlight exposure. Namely, from measured value (L1,a1,b1) before sunlight exposure, color difference (ΔE) was calculated by following formula.

[4] = drug 2-o-α-α-glucopyranosyl-L-ascorbic acid 2.0
[5] = drug Dibutylhydroxytoluene 0.01
[6] = drug Dipotassium glycyrrhizinate 0.05
[7] = drug L-ascorbic acid 2-(dl-α-tocopheryl hydrogen phosphate) potassium salt 0.01
[8] = Base perfume Fruity 0.03 wt %, photostabilizer 0.1 wt %
[9] = Base perfume Muguet 0.03 wt %, photostabilizer 0.05 wt %
[10] = Base perfume Rose 0.03 wt %, photostabilizer 0.05 wt %
[11] = Base perfume Spicy 0.03 wt %, photostabilizer 0.2 wt %
[12] = Base perfume Woody 0.03 wt %, photostabilizer 0.1 wt %
[13] = Natural perfume Jasmine oil 0.03 wt %, photostabilizer 0.05 wt %
[14] = Natural perfume Lavender oil 0.03 wt %, photostabilizer 0.1 wt %
[15] = Natural perfume Neroli oil 0.03 wt %, photostabilizer 0.1 wt %
[16] = Natural perfume Rose oil 0.03 wt %, photostabilizer 0.05 wt %
[17] = Natural perfume Ylang ylang oil 0.03 wt %, photostabilizer 0.2 wt %
[18] = Synthetic perfume Citral 0.03 wt %, photostabilizer 0.1 wt %
[19] = Synthetic perfume Limonene 0.03 wt %, photostabilizer 0.05 wt %
[20] = Synthetic perfume Linalool 0.03 wt %, photostabilizer 0.05 wt %
[21] = Synthetic perfume Linalyl acetate 0.03 wt %, photostabilizer 0.1 wt %
[22] = Synthetic perfume Rose oxide 0.03 wt %, photostabilizer 0.2 wt %
[23] = Red No. 106 0.00001 wt % + Yellow No. 5 0.0001 wt %
[24] = Red No. 106 0.00001 wt % + Yellow No. 203 0.0001 wt %
[25] = Red No. 213 0.00001 wt % + Blue No. 1 0.00001 wt %
[26] = Red No. 227 0.0001 wt % + Yellow No. 5 0.0001 wt %
[27] = Red No. 227 0.0001 wt % + Yellow No. 203 0.0001 wt %
[28] = Red No. 401 0.0001 wt % + Blue No. 1 0.00001 wt %
[29] = Red No. 401 0.0001 wt % + Green No. 3 0.00001 wt %
[30] = Yellow No. 203 0.0001 wt % + Yellow No. 5 0.0001 wt %

## COc1cc(O)c(C(=O)c2ccccc2)cc1S(=O)(=O)[O-].[Na+] [2-Hydroxy-4-methoxybenzophenone-5-sodium sulfonate, reference compound]
[1]; [4]
  Sunlight exposure (80 MJ) Appearance: B
  Sunlight exposure (80 MJ) Residual yield [%]: 97.8%
[1]; [5]
  Sunlight exposure (80 MJ) Appearance: B
  Sunlight exposure (80 MJ) Residual yield [%]: 94.8%
[1]; [6]
  Sunlight exposure (80 MJ) Appearance: B
  Sunlight exposure (80 MJ) Residual yield [%]: 97.5%
[1]; [7]
  Sunlight exposure (80 MJ) Appearance: B
  Sunlight exposure (80 MJ) Residual yield [%]: 95.0%
[1]; drug Salicylic acid 0.1
  Sunlight exposure (80 MJ) Appearance: B
  Sunlight exposure (80 MJ) Residual yield [%]: 98.0%
[2]; [8]
  Sunlight exposure (80 MJ) Smell evaluation: B
[2]; [9]
  Sunlight exposure (80 MJ) Smell evaluation: B
[2]; [10]
  Sunlight exposure (80 MJ) Smell evaluation: B
[2]; [11]
  Sunlight exposure (80 MJ) Smell evaluation: B
[2]; [12]
  Sunlight exposure (80 MJ) Smell evaluation: B
[2]; [13]
  Sunlight exposure (80 MJ) Smell evaluation: B
[2]; [14]
  Sunlight exposure (80 MJ) Smell evaluation: B
[2]; [15]
  Sunlight exposure (80 MJ) Smell evaluation: B
[2]; [16]
  Sunlight exposure (80 MJ) Smell evaluation: B
[2]; [17]
  Sunlight exposure (80 MJ) Smell evaluation: B
[2]; [18]
  Sunlight exposure (80 MJ) Smell evaluation: B
[2]; [19]
  Sunlight exposure (80 MJ) Smell evaluation: B
[2]; [20]
  Sunlight exposure (80 MJ) Smell evaluation: B
[2]; [21]
  Sunlight exposure (80 MJ) Smell evaluation: B
[2]; [22]
  Sunlight exposure (80 MJ) Smell evaluation: B
[3]; Blue No. 1 0.0001 wt %
  Sunlight exposure (80 MJ) Appearance: B
  Sunlight exposure (80 MJ) ΔE: 1.67
[3]; Green No. 3 0.0001 wt %
  Sunlight exposure (80 MJ) Appearance: B
  Sunlight exposure (80 MJ) ΔE: 0.74
[3]; Red No. 106 0.0001 wt %
  Sunlight exposure (80 MJ) Appearance: B
  Sunlight exposure (80 MJ) ΔE: 0.98
[3]; Red No. 213 0.0001 wt %
  Sunlight exposure (80 MJ) Appearance: B
  Sunlight exposure (80 MJ) ΔE: 1.28
[3]; Red No. 227 0.0001 wt %
  Sunlight exposure (80 MJ) Appearance: B
  Sunlight exposure (80 MJ) ΔE: 0.80
[3]; Red No. 401 0.001 wt %
  Sunlight exposure (80 MJ) Appearance: B
  Sunlight exposure (80 MJ) ΔE: 1.39
[3]; Yellow No. 5 0.001 wt %
  Sunlight exposure (80 MJ) Appearance: B
  Sunlight exposure (80 MJ) ΔE: 0.78
[3]; Yellow No. 203 0.001 wt %
  Sunlight exposure (80 MJ) Appearance: B
  Sunlight exposure (80 MJ) ΔE: 0.76

## COc1ccc(C(=O)CC(=O)c2ccc(C(C)(C)C)cc2)cc1 [4-tert-Butyl-4′-methoxy-di-benzoylmethane, reference compound]
[1]; [4]
  Sunlight exposure (80 MJ) Appearance: B
  Sunlight exposure (80 MJ) Residual yield [%]: 97.0%
[1]; [5]
  Sunlight exposure (80 MJ) Appearance: B
  Sunlight exposure (80 MJ) Residual yield [%]: 95.2%
[1]; [6]
  Sunlight exposure (80 MJ) Appearance: B
  Sunlight exposure (80 MJ) Residual yield [%]: 96.6%
[1]; [7]
  Sunlight exposure (80 MJ) Appearance: B
  Sunlight exposure (80 MJ) Residual yield [%]: 94.5%
[1]; drug Salicylic acid 0.1
  Sunlight exposure (80 MJ) Appearance: B
  Sunlight exposure (80 MJ) Residual yield [%]: 97.2%
[2]; [8]
  Sunlight exposure (80 MJ) Smell evaluation: B
[2]; [9]
  Sunlight exposure (80 MJ) Smell evaluation: B
[2]; [10]
  Sunlight exposure (80 MJ) Smell evaluation: B
[2]; [11]
  Sunlight exposure (80 MJ) Smell evaluation: B
[2]; [12]
  Sunlight exposure (80 MJ) Smell evaluation: B
[2]; [13]
  Sunlight exposure (80 MJ) Smell evaluation: B
[2]; [14]
  Sunlight exposure (80 MJ) Smell evaluation: B
[2]; [15]
  Sunlight exposure (80 MJ) Smell evaluation: B
[2]; [16]
  Sunlight exposure (80 MJ) Smell evaluation: B
[2]; [17]
  Sunlight exposure (80 MJ) Smell evaluation: B
[2]; [18]
  Sunlight exposure (80 MJ) Smell evaluation: B
[2]; [19]
  Sunlight exposure (80 MJ) Smell evaluation: B
[2]; [20]
  Sunlight exposure (80 MJ) Smell evaluation: B
[2]; [21]
  Sunlight exposure (80 MJ) Smell evaluation: B
[2]; [22]
  Sunlight exposure (80 MJ) Smell evaluation: B
[3]; Blue No. 1 0.0001 wt %
  Sunlight exposure (80 MJ) Appearance: B
  Sunlight exposure (80 MJ) ΔE: 1.49
[3]; Green No. 3 0.0001 wt %
  Sunlight exposure (80 MJ) Appearance: B
  Sunlight exposure (80 MJ) ΔE: 0.62
[3]; [23]
  Sunlight exposure (80 MJ) Appearance: B
  Sunlight exposure (80 MJ) ΔE: 0.92
[3]; [24]
  Sunlight exposure (80 MJ) Appearance: B
  Sunlight exposure (80 MJ) ΔE: 1.02
[3]; Red No. 106 0.0001 wt %
  Sunlight exposure (80 MJ) Appearance: B
  Sunlight exposure (80 MJ) ΔE: 1.02
[3]; [25]
  Sunlight exposure (80 MJ) Appearance: B
  Sunlight exposure (80 MJ) ΔE: 1.17
[3]; Red No. 213 0.0001 wt %
  Sunlight exposure (80 MJ) Appearance: B
  Sunlight exposure (80 MJ) ΔE: 1.02
[3]; [26]
  Sunlight exposure (80 MJ) Appearance: B
  Sunlight exposure (80 MJ) ΔE: 0.80
[3]; [27]
  Sunlight exposure (80 MJ) Appearance: B
  Sunlight exposure (80 MJ) ΔE: 1.12
[3]; Red No. 227 0.0001 wt %
  Sunlight exposure (80 MJ) Appearance: B
  Sunlight exposure (80 MJ) ΔE: 0.95
[3]; [28]
  Sunlight exposure (80 MJ) Appearance: B
  Sunlight exposure (80 MJ) ΔE: 0.93
[3]; [29]
  Sunlight exposure (80 MJ) Appearance: B
  Sunlight exposure (80 MJ) ΔE: 0.99
[3]; Red No. 401 0.001 wt %
  Sunlight exposure (80 MJ) Appearance: B
  Sunlight exposure (80 MJ) ΔE: 1.02
[3]; Yellow No. 5 0.001 wt %
  Sunlight exposure (80 MJ) Appearance: B
  Sunlight exposure (80 MJ) ΔE: 0.88
[3]; [30]
  Sunlight exposure (80 MJ) Appearance: A
  Sunlight exposure (80 MJ) ΔE: 0.48
[3]; Yellow No. 203 0.001 wt %
  Sunlight exposure (80 MJ) Appearance: B
  Sunlight exposure (80 MJ) ΔE: 0.68

Source: US6395896B2, “Pyridazine derivatives, manufacturing method and related composition” (Shiseido Co., Ltd., priority 1999, dated 2002)
